Structures are written as SMILES. Calls of active or inactive are those of the source. No cut-off for these calls is given here.

Format in all cases: cell-based
Test [1] deals with T1, Retinoic acid receptor alpha (Homo sapiens) (UniProt P10276).
T1 sequence (whole entry): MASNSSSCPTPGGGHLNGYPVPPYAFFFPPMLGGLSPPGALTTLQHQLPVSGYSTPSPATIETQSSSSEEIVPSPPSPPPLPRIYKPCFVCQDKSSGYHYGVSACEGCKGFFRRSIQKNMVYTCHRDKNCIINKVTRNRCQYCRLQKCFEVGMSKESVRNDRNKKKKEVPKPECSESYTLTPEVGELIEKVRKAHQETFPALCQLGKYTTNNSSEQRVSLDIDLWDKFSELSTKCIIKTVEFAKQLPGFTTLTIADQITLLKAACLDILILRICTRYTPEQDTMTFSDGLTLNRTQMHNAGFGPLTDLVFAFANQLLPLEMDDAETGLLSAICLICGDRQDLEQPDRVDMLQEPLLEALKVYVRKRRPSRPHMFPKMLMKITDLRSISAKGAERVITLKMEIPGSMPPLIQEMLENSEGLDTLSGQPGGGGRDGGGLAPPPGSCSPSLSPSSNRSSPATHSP
Nature of the test: Agonist activity at human RARalpha expressed in HEK293 cells assessed as transcriptional activation at 0.1 to 50 uM after 40 hrs by luciferase reporter gene assay.

Test [2] concerns the target T2, Peroxisome proliferator-activated receptor gamma (Homo sapiens) (UniProt P37231).
T2 sequence (whole entry): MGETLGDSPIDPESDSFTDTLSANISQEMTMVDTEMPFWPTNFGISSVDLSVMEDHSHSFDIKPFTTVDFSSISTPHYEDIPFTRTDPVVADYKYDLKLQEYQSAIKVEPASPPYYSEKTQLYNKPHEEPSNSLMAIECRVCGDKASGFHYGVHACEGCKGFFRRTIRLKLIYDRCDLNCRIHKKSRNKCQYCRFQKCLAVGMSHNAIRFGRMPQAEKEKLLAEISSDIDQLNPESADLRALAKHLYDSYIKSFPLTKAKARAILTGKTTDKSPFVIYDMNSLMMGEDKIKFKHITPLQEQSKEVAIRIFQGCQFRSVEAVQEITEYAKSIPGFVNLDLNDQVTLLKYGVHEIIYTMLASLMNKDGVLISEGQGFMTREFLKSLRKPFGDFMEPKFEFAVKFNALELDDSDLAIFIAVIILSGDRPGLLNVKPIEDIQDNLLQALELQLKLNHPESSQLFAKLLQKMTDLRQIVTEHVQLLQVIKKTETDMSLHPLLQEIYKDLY
Nature of the test: Agonist activity at PPARgamma (unknown origin) expressed in HEK293 cells assessed as transcriptional activation at 1 to 25 uM after 40 hrs by luciferase reporter gene assay.

For test [3], the target named is T3, Peroxisome proliferator-activated receptor delta (Homo sapiens) (UniProt Q03181).
T3 sequence (whole entry): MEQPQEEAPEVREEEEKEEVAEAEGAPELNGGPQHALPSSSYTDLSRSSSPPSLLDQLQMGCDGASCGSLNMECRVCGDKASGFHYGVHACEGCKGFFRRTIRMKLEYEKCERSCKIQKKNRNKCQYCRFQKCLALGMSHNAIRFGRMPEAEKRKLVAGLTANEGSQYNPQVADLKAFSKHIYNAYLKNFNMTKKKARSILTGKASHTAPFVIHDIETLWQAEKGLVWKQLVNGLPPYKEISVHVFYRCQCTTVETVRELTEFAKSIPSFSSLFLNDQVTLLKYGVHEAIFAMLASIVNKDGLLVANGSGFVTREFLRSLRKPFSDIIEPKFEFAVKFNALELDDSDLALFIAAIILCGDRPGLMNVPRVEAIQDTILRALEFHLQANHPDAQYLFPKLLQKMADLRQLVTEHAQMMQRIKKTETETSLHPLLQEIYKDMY
The test is described as follows: Agonist activity at PPARdelta (unknown origin) expressed in HEK293 cells assessed as transcriptional activation at 1 to 25 uM after 40 hrs by luciferase reporter gene assay.

Test [4] addresses T4, Oxysterols receptor LXR-alpha (Homo sapiens) (UniProt Q13133).
T4 sequence (whole entry): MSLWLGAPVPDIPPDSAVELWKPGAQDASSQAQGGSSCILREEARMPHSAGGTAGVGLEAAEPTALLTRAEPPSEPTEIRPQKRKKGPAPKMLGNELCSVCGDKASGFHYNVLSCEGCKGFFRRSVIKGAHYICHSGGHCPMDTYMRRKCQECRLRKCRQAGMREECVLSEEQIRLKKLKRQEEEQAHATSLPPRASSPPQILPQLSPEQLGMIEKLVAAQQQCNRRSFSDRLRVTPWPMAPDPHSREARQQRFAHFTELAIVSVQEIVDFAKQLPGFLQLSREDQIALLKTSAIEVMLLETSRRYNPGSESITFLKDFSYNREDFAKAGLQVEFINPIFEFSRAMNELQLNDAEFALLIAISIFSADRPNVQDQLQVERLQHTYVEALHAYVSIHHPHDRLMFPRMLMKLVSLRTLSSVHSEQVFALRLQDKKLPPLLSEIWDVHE
Nature of the test: Agonist activity at LXR-alpha (unknown origin) expressed in HEK293 cells assessed as transcriptional activation at 1 to 25 uM after 40 hrs by luciferase reporter gene assay.

Test [5] has as its target T5, Retinoic acid receptor (Homo sapiens) (UniProt P13631+P10826+P10276). Nature of the test: Activation of RAR in human HepG2 cells assessed as increase in CAR mRNA level at 10 uM after 24 hrs by RT-PCR analysis.
Test [6] deals with F9. The test is described as follows: Activation of RAR in mouse F9 cells assessed as increase in CYP26A1 mRNA level at 10 uM after 48 hrs by RT-PCR analysis.
For test [7], the system named is F9. Nature of the test: Activation of RAR in mouse F9 cells assessed as increase in CYP26A1 mRNA level at 10 uM after 48 hrs by RT-PCR analysis in presence of RAR antagonist BMS493.
Test [8] deals with T5, Retinoic acid receptor (Homo sapiens). Nature of the test: Induction of RAR-mediated differentiation of human HL60 cells at 1 uM after 4 days by NBT assay. Particulars: HL-60.
Test [9] has as its target T1, Retinoic acid receptor alpha (Homo sapiens). Nature of the test: Agonist activity at human RARalpha expressed in HEK293 cells assessed as transcriptional activation at 1 to 100 uM after 40 hrs by luciferase reporter gene assay.
Test [10] has the same target. Nature of the test: Agonist activity at human RARalpha expressed in HEK293 cells assessed as transcriptional activation at 1 to 100 uM after 40 hrs by luciferase reporter gene assay in presence of RAR antagonist LE135.
The target in test [11] is T6, Retinoic acid receptor RXR-alpha (Homo sapiens) (UniProt P19793).
T6 sequence (whole entry): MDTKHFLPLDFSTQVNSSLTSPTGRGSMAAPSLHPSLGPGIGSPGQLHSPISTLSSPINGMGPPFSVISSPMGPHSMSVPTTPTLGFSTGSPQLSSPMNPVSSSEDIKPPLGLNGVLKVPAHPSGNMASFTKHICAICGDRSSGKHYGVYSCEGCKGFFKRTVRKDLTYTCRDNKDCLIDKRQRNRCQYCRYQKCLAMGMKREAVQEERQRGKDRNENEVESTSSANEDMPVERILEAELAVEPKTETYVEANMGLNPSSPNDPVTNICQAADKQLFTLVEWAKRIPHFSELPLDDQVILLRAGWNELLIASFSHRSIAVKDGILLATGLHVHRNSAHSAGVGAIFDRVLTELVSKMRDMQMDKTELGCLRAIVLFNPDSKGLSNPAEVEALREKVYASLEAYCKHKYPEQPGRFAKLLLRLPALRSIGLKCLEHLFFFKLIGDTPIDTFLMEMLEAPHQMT
The test is described as follows: Agonist activity at human RXRalpha expressed in HEK293 cells assessed as transcriptional activation up to 100 uM after 40 hrs by luciferase reporter gene assay.

The target of test [12] is T5, Retinoic acid receptor (Homo sapiens). Nature of the test: Induction of RAR-mediated differentiation of human HL60 cells at 1 to 25 uM after 4 days by NBT assay. Conditions: HL-60.
Test [13] deals with F9. Nature of the test: Activation of RAR in mouse F9 cells assessed as increase in CYP26A1 mRNA level at 0.01 uM after 48 hrs by RT-PCR analysis.

T5 sequence (P10826 whole entry, looked up, one chain of several): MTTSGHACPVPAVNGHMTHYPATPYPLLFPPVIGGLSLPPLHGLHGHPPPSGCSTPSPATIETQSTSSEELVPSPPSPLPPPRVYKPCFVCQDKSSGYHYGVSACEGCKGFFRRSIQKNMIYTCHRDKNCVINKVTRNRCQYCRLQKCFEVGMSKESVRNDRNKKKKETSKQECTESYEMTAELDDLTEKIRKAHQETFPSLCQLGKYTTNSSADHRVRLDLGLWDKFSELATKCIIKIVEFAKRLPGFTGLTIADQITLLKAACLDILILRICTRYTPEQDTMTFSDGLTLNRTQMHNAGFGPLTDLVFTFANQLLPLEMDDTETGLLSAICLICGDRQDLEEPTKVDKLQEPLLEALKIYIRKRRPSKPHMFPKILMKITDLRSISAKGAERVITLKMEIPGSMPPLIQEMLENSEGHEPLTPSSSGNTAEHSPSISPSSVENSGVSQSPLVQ
T5 sequence (P13631 whole entry, looked up, one chain of several): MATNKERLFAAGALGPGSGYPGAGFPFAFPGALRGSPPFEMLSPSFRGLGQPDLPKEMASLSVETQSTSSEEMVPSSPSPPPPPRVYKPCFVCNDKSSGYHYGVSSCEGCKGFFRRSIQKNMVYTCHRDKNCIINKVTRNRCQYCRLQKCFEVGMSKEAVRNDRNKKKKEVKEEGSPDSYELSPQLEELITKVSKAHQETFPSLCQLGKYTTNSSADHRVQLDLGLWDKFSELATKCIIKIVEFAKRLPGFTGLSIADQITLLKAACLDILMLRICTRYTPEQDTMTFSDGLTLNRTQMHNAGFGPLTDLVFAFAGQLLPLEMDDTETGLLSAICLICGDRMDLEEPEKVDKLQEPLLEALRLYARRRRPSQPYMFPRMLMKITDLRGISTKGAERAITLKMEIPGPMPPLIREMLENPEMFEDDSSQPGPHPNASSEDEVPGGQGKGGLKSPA

For the molecule `COC(=O)[C@H](C)NC(=O)[C@]1(C)CCC[C@]2(C)c3ccc(C(C)C)cc3CC[C@@H]12`, the outcome in test [1] was inactive.
`CC(C)C1=CC2=CC[C@@H]3[C@](C)(CCC[C@@]3(C)C(=O)O)[C@H]2CC1`: the outcome (in test [1]; in [2]; in test [5]; with F9 [6]; in [8]) was Active. Moreover, the result (in test [3]; in test [4]; with F9 [7]) was inactive.
Turning to `C=C[C@]1(C)C=C2CC[C@H]3[C@@](C)(CCC[C@@]3(C)C(=O)O)[C@@H]2CC1`, the outcome (in [9]; in test [1]; in the test with F9 [6]; in [12]) was Active. The result in [10], in [11], in test [2], in test [3], in [4] and in test [5] was inactive. Further, in the test on F9 [7], the outcome was inactive.
With `CC1=C(/C=C/C(C)=C/C=C/C(C)=C/C(=O)O)C(C)(C)CCC1`, the outcome (with F9 [13]; in test [8]) was Active.
Turning to `C=C[C@@]1(C)C=C2CC[C@@H]3[C@](C)(CCC[C@@]3(C)C(=O)O)[C@H]2CC1`, the result (in test [1]; in [5]; with F9 [6]; in test [8]) was Active. Further, the result (in test [2]; in test [3]; in test [4]; with F9 [7]) was inactive.
With `C=C1C[C@@]23CC[C@H]4[C@@](C)(CCC[C@@]4(C)C(=O)O)[C@@H]2CC[C@]1(O)C3`, the outcome in test [1] was inactive.
